In patent publication US10870832B2, “Use of small molecules to enhance MAFA expression in pancreatic endocrine cells” (Janssen Biotech, Inc., priority 2014, dated 2020):

Assays:
MAFA expression = assay: Stage 7 treatment, real-time PCR of MAFA (Example 7); type: cell-based, human; conditions: Stage 7, day 14, 2 μM R428 or 2-5 μM inhibitor substituted for R428, H1-derived cells, mRNA
Method: Cells of the human embryonic stem cell line H1 (WA01) were seeded as single cells at 1×10^5 cells/cm^2 on MATRIGEL™ (1:30 dilution) coated dishes in E8 media. At about 70 to 80% confluency, the cultures were washed in 1× incomplete DPBS followed by incubation with 1× TrypLE™ Express Enzyme for 3 to 5 minutes at 37° C. The released cells were rinsed with E8 and spun at 1000 rpm for 5 minutes. The resulting cell pellet was resuspended in E8 supplemented with 10 μM Y-27632 and the single cell suspension was seeded at approximately 1.3 to 1.5×10^5 cells/cm^2. The cultures were fed every day with E8 medium and differentiation, according to the following protocol, was initiated 48 hrs. following seeding resulting in an about 90% starting confluency.
Stage 6 cells were cultured for fourteen days in BLAR medium supplemented with a 1:100 dilution of ITS-X; 20 mM glucose (final); 1.5 g/L sodium bicarbonate; 2% FAF-BSA; 10 μg/ml of heparin, 10 μM ZnSO4, 1 μM T3 as 3,3′, 5-triiodo-L-thyronine sodium salt, 10 μM ALK5 inhibitor II, 1 mM N-acetyl cysteine. Some cultures also included one of 2 μM R428, 2-5 μM RSK inhibitor II (2-(3,5-Difluoro-4-hydroxy-anilino)-8-isopentyl-5,7-dimethyl-7H-pteridin-6-one) (EMD Millipore; Catalog No, 559286-5MG), 2-5 μM aurora kinase inhibitor II (EMD Millipore, or a combination of 2-5 μM RSK inhibitor II and 2-5 μM aurora kinase II inhibitor.
At Stage 7, day 14, mRNA was collected and compared to undifferentiated human stem cells.

Aurora-A(h) = molecular target: T1, Aurora-A(h) (Homo sapiens, UniProt O14965); assay: Kinase profiling of R428; type: biochemical; conditions: for efficiency in targeting Aurora-A(h): 100 μM ATP, lower number = more robust inhibition
T1 sequence (O14965 1-403): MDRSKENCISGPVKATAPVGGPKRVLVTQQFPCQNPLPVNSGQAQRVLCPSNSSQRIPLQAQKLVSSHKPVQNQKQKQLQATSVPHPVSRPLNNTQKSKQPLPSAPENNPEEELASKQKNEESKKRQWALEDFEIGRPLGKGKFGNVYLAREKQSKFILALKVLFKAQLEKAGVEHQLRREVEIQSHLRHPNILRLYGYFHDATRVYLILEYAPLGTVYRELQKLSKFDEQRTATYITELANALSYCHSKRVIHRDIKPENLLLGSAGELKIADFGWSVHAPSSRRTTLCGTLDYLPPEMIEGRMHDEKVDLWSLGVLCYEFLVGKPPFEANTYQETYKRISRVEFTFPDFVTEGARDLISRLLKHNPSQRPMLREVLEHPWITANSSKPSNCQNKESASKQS
Method: (§1) The efficiency of the AXL inhibitor R428 for targeting different kinases was assessed by Kinase Profiling Services using 100 μM ATP concentration (EMD Millipore). R428 was tested at 1 and 10 μM. Table IV lists the kinases profiled along with the efficiency in targeting the kinases with a lower number indicating a more robust inhibition of a particular kinase.

Ret(h) = Ret(h) (Homo sapiens, UniProt P07949); assay: Kinase profiling of R428; type: biochemical; conditions: for efficiency in targeting Ret(h): 100 μM ATP, lower number = more robust inhibition
Method: as §1

TGEBR1(h) = TGEBR1(h) (Homo sapiens, UniProt P36897); assay: Kinase profiling of R428; type: biochemical; conditions: 100 μM ATP, lower number = more robust inhibition
Method: as §1

CHK1(h) = CHK1(h) (Homo sapiens, UniProt O14757); assay: Kinase profiling of R428; type: biochemical; conditions: 100 μM ATP, lower number = more robust inhibition
Method: as §1

PKBα(h) = PKBα(h) (Homo sapiens, UniProt P31749); assay: Kinase profiling of R428; type: biochemical; conditions: 100 μM ATP, lower number = more robust inhibition, read-out: efficiency in targeting PKBα(h)
Method: as §1

IKKβ(h) = IKKβ(h) (Homo sapiens, UniProt O14920); assay: Kinase profiling of R428; type: biochemical; conditions: 100 μM ATP, lower number = more robust inhibition
Method: as §1

JAK3(h) = JAK3(h) (Homo sapiens, UniProt P52333); assay: Kinase profiling of R428; type: biochemical; conditions: 100 μM ATP, lower number = more robust inhibition
Method: as §1

GSK313(h) = GSK313(h) (Homo sapiens, UniProt P49841); assay: Kinase profiling of R428; type: biochemical; conditions: 100 μM ATP, lower number = more robust inhibition
Method: as §1

MAPK1(h) = MAPK1(h) (Homo sapiens, UniProt P27361); assay: Kinase profiling of R428; type: biochemical; conditions: 100 μM ATP, lower number = more robust inhibition
Method: as §1

CK2(h) = CK2(h) (Homo sapiens, UniProt P68400); assay: Kinase profiling of R428; type: biochemical; conditions: 100 μM ATP, lower number = more robust inhibition
Method: as §1

Pim-2(h) = Pim-2(h) (Homo sapiens, UniProt Q9P1W9); assay: Kinase profiling of R428; type: biochemical; conditions: 100 μM ATP, lower number = more robust inhibition
Method: as §1

Blk(h) = Blk(h) (Homo sapiens, UniProt P51451); assay: Kinase profiling of R428; type: biochemical; conditions: 100 μM ATP, lower number = more robust inhibition
Method: as §1

PAK4(h) = PAK4(h) (Homo sapiens, UniProt O96013); assay: Kinase profiling of R428; type: biochemical; conditions: 100 μM ATP, lower number = more robust inhibition
Method: as §1

PKCα(h) = PKCα(h) (Homo sapiens, UniProt P17252); assay: Kinase profiling of R428; type: biochemical; conditions: 100 μM ATP, lower number = more robust inhibition
Method: as §1

cSRC(h) = cSRC(h) (Homo sapiens, UniProt P12931); assay: Kinase profiling of R428; type: biochemical; conditions: 100 μM ATP, lower number = more robust inhibition
Method: as §1

SAPK3(h) = SAPK3(h) (Homo sapiens, UniProt P53778); assay: Kinase profiling of R428; type: biochemical; conditions: 100 μM ATP, lower number = more robust inhibition
Method: as §1

EGFR(h) = EGFR(h) (Homo sapiens, UniProt P00533); assay: Kinase profiling of R428; type: biochemical; conditions: 100 μM ATP, lower number = more robust inhibition
Method: as §1

Ret(h), sequence (P07949 29-1114): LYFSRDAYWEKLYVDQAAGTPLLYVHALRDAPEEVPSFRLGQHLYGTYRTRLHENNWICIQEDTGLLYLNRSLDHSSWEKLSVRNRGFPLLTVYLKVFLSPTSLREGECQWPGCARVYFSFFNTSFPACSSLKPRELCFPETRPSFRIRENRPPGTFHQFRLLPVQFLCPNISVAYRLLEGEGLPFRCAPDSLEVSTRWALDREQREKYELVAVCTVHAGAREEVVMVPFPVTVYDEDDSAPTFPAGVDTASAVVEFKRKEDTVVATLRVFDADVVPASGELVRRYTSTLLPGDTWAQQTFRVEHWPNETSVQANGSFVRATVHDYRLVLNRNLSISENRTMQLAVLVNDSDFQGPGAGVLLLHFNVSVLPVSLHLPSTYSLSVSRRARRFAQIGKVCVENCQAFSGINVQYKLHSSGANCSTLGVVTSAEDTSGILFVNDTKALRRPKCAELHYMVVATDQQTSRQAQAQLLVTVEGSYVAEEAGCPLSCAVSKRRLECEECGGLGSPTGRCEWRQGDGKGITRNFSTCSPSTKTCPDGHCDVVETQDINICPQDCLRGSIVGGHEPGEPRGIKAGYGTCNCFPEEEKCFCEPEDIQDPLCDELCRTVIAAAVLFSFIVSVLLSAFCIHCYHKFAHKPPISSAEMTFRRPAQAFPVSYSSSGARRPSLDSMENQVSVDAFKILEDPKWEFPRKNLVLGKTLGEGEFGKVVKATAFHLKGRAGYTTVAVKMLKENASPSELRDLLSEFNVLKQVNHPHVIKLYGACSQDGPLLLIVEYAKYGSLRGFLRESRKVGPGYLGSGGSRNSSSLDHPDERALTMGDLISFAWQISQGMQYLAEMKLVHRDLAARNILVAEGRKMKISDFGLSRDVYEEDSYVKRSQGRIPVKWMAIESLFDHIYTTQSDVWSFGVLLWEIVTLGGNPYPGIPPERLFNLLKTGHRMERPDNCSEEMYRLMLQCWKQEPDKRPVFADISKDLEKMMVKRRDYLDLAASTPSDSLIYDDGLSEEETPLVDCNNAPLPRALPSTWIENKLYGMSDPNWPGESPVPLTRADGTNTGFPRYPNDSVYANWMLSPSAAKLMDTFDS
JAK3(h), sequence (P52333 whole entry): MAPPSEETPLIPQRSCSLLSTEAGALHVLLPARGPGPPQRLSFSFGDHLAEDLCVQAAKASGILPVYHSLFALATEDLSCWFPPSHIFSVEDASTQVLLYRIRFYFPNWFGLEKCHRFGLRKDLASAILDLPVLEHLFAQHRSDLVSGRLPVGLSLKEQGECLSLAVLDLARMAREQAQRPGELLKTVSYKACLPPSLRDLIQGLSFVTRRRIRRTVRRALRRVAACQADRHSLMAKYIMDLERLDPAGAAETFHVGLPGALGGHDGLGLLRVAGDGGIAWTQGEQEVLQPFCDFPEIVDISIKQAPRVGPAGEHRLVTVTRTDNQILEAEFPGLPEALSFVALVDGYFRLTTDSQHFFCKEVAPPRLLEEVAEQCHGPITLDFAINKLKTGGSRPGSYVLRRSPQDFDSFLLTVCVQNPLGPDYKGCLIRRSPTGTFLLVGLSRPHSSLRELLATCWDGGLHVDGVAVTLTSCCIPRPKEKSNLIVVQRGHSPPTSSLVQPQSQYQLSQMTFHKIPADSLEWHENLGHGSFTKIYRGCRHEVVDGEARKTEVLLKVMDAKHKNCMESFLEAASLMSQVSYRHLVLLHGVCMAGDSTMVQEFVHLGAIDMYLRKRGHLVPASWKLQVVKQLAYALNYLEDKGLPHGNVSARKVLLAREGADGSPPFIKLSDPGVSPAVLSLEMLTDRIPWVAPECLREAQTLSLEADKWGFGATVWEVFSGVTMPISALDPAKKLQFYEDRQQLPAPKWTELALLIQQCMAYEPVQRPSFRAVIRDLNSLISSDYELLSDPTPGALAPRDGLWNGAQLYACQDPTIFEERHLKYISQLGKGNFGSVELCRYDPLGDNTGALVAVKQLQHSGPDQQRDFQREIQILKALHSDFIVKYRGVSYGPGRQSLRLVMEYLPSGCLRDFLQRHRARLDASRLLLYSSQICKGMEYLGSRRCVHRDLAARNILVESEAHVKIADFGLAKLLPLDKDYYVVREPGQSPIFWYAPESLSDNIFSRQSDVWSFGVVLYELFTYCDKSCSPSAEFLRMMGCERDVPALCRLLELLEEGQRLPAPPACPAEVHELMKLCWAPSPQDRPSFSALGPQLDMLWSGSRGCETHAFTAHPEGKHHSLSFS
CHK1(h), sequence (O14757 whole entry): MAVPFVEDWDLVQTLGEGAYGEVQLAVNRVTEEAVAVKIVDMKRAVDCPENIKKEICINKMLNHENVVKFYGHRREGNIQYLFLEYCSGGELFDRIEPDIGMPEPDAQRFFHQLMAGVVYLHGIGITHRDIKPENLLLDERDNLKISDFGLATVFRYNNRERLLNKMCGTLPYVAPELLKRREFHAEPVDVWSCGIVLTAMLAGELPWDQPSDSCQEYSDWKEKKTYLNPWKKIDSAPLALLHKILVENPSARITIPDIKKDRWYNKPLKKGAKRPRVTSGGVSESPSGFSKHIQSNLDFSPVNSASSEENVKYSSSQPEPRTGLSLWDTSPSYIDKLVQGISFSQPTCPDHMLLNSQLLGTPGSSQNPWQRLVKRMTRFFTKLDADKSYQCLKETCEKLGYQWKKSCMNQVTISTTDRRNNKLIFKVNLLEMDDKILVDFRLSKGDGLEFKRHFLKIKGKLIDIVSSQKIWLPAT
cSRC(h), sequence (P12931 whole entry): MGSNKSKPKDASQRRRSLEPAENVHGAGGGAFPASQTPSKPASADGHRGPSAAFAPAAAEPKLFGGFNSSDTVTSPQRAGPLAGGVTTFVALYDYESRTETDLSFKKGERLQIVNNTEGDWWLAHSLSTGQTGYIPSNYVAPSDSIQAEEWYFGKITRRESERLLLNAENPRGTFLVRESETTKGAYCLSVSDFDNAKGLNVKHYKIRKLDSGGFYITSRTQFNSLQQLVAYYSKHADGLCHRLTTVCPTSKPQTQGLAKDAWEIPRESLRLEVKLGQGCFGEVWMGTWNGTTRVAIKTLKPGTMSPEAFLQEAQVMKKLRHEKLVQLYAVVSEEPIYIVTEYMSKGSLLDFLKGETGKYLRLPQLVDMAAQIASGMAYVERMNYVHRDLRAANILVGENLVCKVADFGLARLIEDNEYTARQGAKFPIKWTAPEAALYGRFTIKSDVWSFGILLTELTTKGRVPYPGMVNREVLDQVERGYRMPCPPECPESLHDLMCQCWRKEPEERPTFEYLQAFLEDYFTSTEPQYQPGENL
IKKβ(h), sequence (O14920 whole entry): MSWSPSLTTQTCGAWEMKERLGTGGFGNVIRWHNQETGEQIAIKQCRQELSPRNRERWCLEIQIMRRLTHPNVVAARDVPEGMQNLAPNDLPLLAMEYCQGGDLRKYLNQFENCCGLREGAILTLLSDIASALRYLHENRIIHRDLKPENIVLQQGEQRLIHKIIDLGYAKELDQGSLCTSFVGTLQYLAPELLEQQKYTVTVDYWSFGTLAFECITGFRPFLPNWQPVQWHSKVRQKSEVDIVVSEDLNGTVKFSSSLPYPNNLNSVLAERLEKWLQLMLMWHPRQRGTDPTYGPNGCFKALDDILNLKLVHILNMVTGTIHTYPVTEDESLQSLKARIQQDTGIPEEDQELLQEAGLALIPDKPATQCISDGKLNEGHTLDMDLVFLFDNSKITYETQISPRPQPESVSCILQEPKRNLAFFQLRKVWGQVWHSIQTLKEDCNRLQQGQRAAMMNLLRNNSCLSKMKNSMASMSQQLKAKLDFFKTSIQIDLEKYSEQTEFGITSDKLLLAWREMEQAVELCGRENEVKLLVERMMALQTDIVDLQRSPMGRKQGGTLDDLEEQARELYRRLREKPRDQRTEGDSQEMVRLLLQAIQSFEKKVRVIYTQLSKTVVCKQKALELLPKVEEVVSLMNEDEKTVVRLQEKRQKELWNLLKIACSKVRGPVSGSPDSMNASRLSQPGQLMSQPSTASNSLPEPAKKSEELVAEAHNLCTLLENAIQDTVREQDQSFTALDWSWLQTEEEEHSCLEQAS
Pim-2(h), sequence (Q9P1W9 whole entry): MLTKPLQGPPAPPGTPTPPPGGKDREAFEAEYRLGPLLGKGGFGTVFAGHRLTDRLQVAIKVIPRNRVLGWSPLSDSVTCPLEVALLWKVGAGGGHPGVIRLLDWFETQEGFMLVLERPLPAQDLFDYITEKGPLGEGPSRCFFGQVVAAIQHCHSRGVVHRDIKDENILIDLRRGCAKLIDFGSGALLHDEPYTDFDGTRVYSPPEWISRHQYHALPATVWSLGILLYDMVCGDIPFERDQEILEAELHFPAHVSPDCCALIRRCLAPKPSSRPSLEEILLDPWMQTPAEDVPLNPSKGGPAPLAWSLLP

`Nc1nc(Nc2ccc3c(c2)CC[C@@H](N2CCCC2)CC3)nn1-c1cc2c(nn1)-c1ccccc1CCC2` [R428, 1H-1,2,4-Triazole-3,5-diamine, 1-(6,7-dihydro-5H-benzo[6,7]cyclohepta[1,2-c]pyridazin-3-yl) N3-[(7S)-6,7,8,9-tetrahydro-7-(1-pyrrolidinyl)-5H-benzocyclohepten-2-yl]-] was tested, and the MAFA expression (MAFA expression) was “removal of R428 resulted in a significant decrease in MAFA expression”, the “efficiency in targeting Aurora-A(h)” value (Aurora-A(h); R428 @ 1 μM) was 20 and the “efficiency in targeting Aurora-A(h)” value (Aurora-A(h); R428 @ 10 μM) was 3. The “inhibition of AuroraA (in words)” value (Aurora-A(h); at 1 and 10 μM) was “potently inhibits”, the “efficiency in targeting Ret(h)” value (Ret(h); R428 @ 1 μM) was 1 and the “efficiency in targeting Ret(h)” value (Ret(h); R428 @ 10 μM) was 1. For the same compound, the “inhibition of Ret (in words)” value (Ret(h); at 1 and 10 μM) was “potently inhibits”, the “efficiency in targeting TGEBR1(h)” value (TGEBR1(h); R428 @ 1 μM) was 97 and the “efficiency in targeting TGEBR1(h)” value (TGEBR1(h); R428 @ 10 μM) was 69. For the same compound, the “efficiency in targeting CHK1(h)” value (CHK1(h); R428 @ 1 μM) was 71, the “efficiency in targeting CHK1(h)” value (CHK1(h); R428 @ 10 μM) was 23 and the activity at 1 µM (PKBα(h); R428 @ 1 μM) was 87%. The activity at 10 µM (PKBα(h); R428 @ 10 μM) was 57%, the “efficiency in targeting IKKβ(h)” value (IKKβ(h); R428 @ 1 μM) was 86 and the “efficiency in targeting IKKβ(h)” value (IKKβ(h); R428 @ 10 μM) was 53. The “efficiency in targeting JAK3(h)” value (JAK3(h); R428 @ 1 μM) was 69, the “efficiency in targeting JAK3(h)” value (JAK3(h); R428 @ 10 μM) was 18 and the “efficiency in targeting GSK313(h)” value (GSK313(h); R428 @ 1 μM) was 106. For the same compound, the “efficiency in targeting GSK313(h)” value (GSK313(h); R428 @ 10 μM) was 99, the “efficiency in targeting MAPK1(h)” value (MAPK1(h); R428 @ 1 μM) was 108 and the “efficiency in targeting MAPK1(h)” value (MAPK1(h); R428 @ 10 μM) was 106. The “efficiency in targeting CK2(h)” value (CK2(h); R428 @ 1 μM) was 103, the “efficiency in targeting CK2(h)” value (CK2(h); R428 @ 10 μM) was 106 and the “efficiency in targeting Pim-2(h)” value (Pim-2(h); R428 @ 1 μM) was 87. For the same compound, the “efficiency in targeting Pim-2(h)” value (Pim-2(h); R428 @ 10 μM) was 74, the “efficiency in targeting Blk(h)” value (Blk(h); R428 @ 1 μM) was 27 and the “efficiency in targeting Blk(h)” value (Blk(h); R428 @ 10 μM) was 2. The “efficiency in targeting PAK4(h)” value (PAK4(h); R428 @ 1 μM) was 97, the “efficiency in targeting PAK4(h)” value (PAK4(h); R428 @ 10 μM) was 73 and the “efficiency in targeting PKCα(h)” value (PKCα(h); R428 @ 1 μM) was 101. For the same compound, the “efficiency in targeting PKCα(h)” value (PKCα(h); R428 @ 10 μM) was 96, the “efficiency in targeting cSRC(h)” value (cSRC(h); R428 @ 1 μM) was 51 and the “efficiency in targeting cSRC(h)” value (cSRC(h); R428 @ 10 μM) was 10. The “efficiency in targeting SAPK3(h)” value (SAPK3(h); R428 @ 1 μM) was 106, the “efficiency in targeting SAPK3(h)” value (SAPK3(h); R428 @ 10 μM) was 108 and the “efficiency in targeting EGFR(h)” value (EGFR(h); R428 @ 1 μM) was 89. For the same compound, the “efficiency in targeting EGFR(h)” value (EGFR(h); R428 @ 10 μM) was 40.
